Assay results taken from patent publication US20190046662A1, “Compositions and Methods for Treating Neuropathic Pain” (Rutgers, The State University of New Jersey, priority 2016, published 2019).

Assays:
Format in all cases: in vivo, rat
hTac1-hM4D [1] = biological target: T1, hTac1-hM4D (Homo sapiens, UniProt P08173, A203G/Y113C); assay: Pain-like behavior after IoN-CCI, Tac1-DREADD (hTac1-hM4D); settings: IoN-CCI males
T1 construct: expressed in transfected cells; host or cells: rat trigeminal ganglion neurons in vivo, viral vector with Tac1 promoter
T1 sequence (P08173 1-479 Y113C/A203G): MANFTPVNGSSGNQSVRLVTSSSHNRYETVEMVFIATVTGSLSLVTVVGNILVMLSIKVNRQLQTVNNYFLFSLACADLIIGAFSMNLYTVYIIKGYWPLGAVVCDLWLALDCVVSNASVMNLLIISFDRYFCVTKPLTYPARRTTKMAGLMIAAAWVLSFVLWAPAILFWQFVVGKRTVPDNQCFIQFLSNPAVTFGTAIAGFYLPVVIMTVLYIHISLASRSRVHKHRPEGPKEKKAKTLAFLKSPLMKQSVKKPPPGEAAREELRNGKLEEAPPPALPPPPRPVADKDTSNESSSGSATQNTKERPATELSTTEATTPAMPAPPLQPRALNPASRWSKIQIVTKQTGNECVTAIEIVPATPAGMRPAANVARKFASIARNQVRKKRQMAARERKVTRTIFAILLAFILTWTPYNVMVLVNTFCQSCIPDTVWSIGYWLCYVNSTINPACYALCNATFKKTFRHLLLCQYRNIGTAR
Excerpt: For the infraorbital nerve chronic constriction injury (ION-CCI), ˜0.5 cm of the infraorbital nerve will be freed and two chromic gut ligatures will be loosely tied around it (2 mm apart) prior to closure of the incision (all performed under ketamine/xylazine anesthesia). As a control, other rats will undergo sham surgery where the infraorbital nerve is exposed but left untouched. This model results in persistent pain beginning at about 2 weeks postoperatively and lasting at least 3 weeks (Benoliel et al. (2001) Neurosci. Lett., 297:151-4; Benoliel et al. (2002) Pain 97:203-12), allowing for the assessment of the effect of vehicle vs CNO/DREADD-mediated inhibition of TG neurons on this behavior at multiple time points. Fos expression and cAMP levels may also be measured in the TG to correlate these molecular endpoints to behavioral effects of DREADD activation. The rats will also undergo repeated stimulation with a 2-g von Frey hair applied to the hairy skin of the vibrissae on the operated side to induce Fos (Vos et al. (1995) J. Comp. Neurol., 357:362-75). Activation of hM4Di receptors will reduce Fos in the TG following von Frey stimulation.
The effects of Tac1-DREADD activation with CNO on pain-like behavior following IoN-CCI were studied (FIG. 10). The mean von Frey detection thresholds (±SEM) (left) and the mean response scores (±SEM) (right) to the pin-prick stimulation applied to the vibrissal pads were plotted. All animals (males, n=7 per group) were exposed to the infraorbital nerve chronic constriction injury (IoN-CCI) unilaterally. Following IoN-CCI, all animals had tachykinin 1-DREADD (hTac1-hM4D) injected into the ipsilateral trigeminal ganglion. At post-operative day 26 (D26) CNO or vehicle was delivered intraperitoneally 30 minutes prior to behavioral testing.

[2] = biological target: T2, hM4Di receptors expressed in TG (Homo sapiens, UniProt P08173, A203G/Y113C); assay: Orofacial formalin test after AAV5-hSyn-hM4Di-mCherry injection into TG (Example 1); settings: rats with AAV5-hSyn-hM4Di-mCherry in TG, vs vehicle
T2 construct: expressed in transfected cells; host or cells: rat trigeminal ganglion neurons in vivo, transduced with AAV5 (synapsin promoter)
T2 sequence (P08173 1-479 Y113C/A203G): T1 sequence (P08173 1-479 Y113C/A203G)
Excerpt: The orofacial formalin model is well established for inducing behavioral and molecular changes indicating pain. The formalin model mimics the clinical situation of an acute insult that wanes rapidly. Models of trigeminal pain and their behavioral and molecular assessments have been described (Benoliel et al. (2001) Pain 91:111-21; Benoliel et al. (2001) Neurosci. Lett., 297:151-4; Benoliel et al. (2002) Pain 97:203-12; Benoliel et al. (2002) Pain 99:567-78). There is increased and intense directed facial grooming following injection of formalin into the rat vibrissal pad, and the duration of grooming is thought to represent the level of pain (Clavelou et al. (1995) Pain 62:295-301; Raboisson et al. (1995) J. Neurophysiol., 73:496-505; Sukriti et al. (2004) Methods Find Exp. Clin. Pharmacol., 26:253-6). At day 37 after virus injection (to allow for viral transfection and DREADD expression), acute pain was induced by subcutaneous injection of 50 μL of 1.5% formalin into the rat's vibrissal pad. Formalin activates Aδ and C nociceptors as well as trigeminal and spinal nociceptive neurons. Formalin-induced unilateral pain is biphasic, with an early short-lasting (3-5 minutes) phase, followed after a quiescent period by a second, prolonged (20-40 minutes) tonic phase. The orofacial formalin test is a valid and reliable way of producing and quantifying nociception in the trigeminal region of the rat (Raboisson et al. (2004) Neurosci. Biobehay. Rev., 28:219-26; Le Bars et al. (2001) Pharmacol. Rev., 53:597-652; Vos et al. (1998) Pain 76:173-8). The concentration of formalin used allows for the detection of both hypo- and hyperalgesic effects. The time that the animal spends rubbing the injected area with fore- or hind paws was recorded. Thirty minutes prior to injecting formalin the animals received CNO ([…], ip) or vehicle treatment.

hTac1-hM4D [3] = biological target: T1, hTac1-hM4D; assay: Face grooming after s.c. formalin into right upper lip, Tac1-DREADD (hTac1-hM4D); settings: females, n=7 per group, vs vehicle
Experimental: The effects of Tac1-DREADD activation with CNO on face grooming activity observed after s.c. injection of formalin into the right upper lip were also studied (FIG. 9). The mean number of seconds that rats (females, n=7 per group) spent grooming (±SEM) is plotted for the 45 minutes post-formalin injection observation period. All animals had Tac1-DREADD (hTac1-hM4D) injected into the right trigeminal ganglion. CNO or vehicle was delivered i.p. 30 minutes prior to the s.c. injection of 1.5% formalin (50 μl) into the right upper lip (ipsilateral side), just lateral to the nose.

[4] = Tac1-DREADD study (sentence prints hSyn-hM4D), CNO i.p. at D26
[5] = CNO ip 30 min prior to formalin

C[N+]1([O-])CCN(C2=Nc3cc(Cl)ccc3Nc3ccccc32)CC1 [CNO, clozapine N-oxide]
von Frey detection threshold, ipsilateral side, compared to vehicle treated animals (hTac1-hM4D [1]; n=7 per group, hTac1-hM4D, CNO i.p. at D26, 30 min prior to testing, F=6.3, P=0.03): significantly increased | pin-prick response score, ipsilateral vibrissal pad, compared to vehicle treated animals (hTac1-hM4D [1]; n=7 per group, hTac1-hM4D, CNO i.p. at D26, F=8.6, P=0.01): significantly decreased | pin-prick response score, contralateral side (hTac1-hM4D [1]; [4]): No significant effects | von Frey detection threshold, contralateral side (hTac1-hM4D [1]; [4]): No significant effects | pin-prick response score, ipsilateral side, compared to post-operative days 21 and 27 (hTac1-hM4D [1]; hTac1-hM4D, CNO i.p. at D26, D21 F=18.9, P=0.0003, D27 F=16.9, P=0.0006): significantly decreased | von Frey detection threshold, ipsilateral side, compared to post-operative days 21 and 27 (hTac1-hM4D [1]; hTac1-hM4D, CNO i.p. at D26, D21 F=31.4, P<0.0001, D27 F=9.8, P=0.006): significantly increased | total time spent grooming after formalin ([2]; CNO (10 mg/ml, ip) 30 min prior to 50 μL 1.5% formalin s.c. vibrissal pad, day 37 after virus, n=3/group, p<0.04): significantly reduced | grooming in early phase (<9 minutes) after formalin [2, 5]: trends to reduce | grooming in late phase (9-45 minutes) after formalin [2, 5]: trends to reduce | total face grooming time, acute phase (0-6 minutes post formalin injection) (hTac1-hM4D [3]; CNO i.p. 30 min prior to 1.5% formalin (50 μl) s.c., F=0.07, P=0.8): no significant effect | total face grooming time, tonic phase (12-45 minutes post formalin injection) (hTac1-hM4D [3]; CNO i.p. 30 min prior to formalin, F=1.6, P=0.2): no significant effect
